# Test results from patent publication US9096559B2, “4-carboxybenzylamino derivatives as histone deacetylase inhibitors” (Merck Sharp & Dohme Corp., priority 2007, dated 2015).
# Assays:
# [1] = system: human cervical cancer (HeLa) and colon carcinoma (HCT116) cells; experiment: ATP (Vialight) cell proliferation assay, 72 hr; format: cell-based; details: IP = inflection point, cell line not given, read-out: Prol-72 hr IP (inflection point)
# Description: The novel compounds of the present invention were tested for their ability to inhibit proliferation of the human cervical cancer (HeLa) and colon carcinoma (HCT116) cells.
# In this assay, also referred to as the Vialight Assay, cellular ATP levels are measured as a means of quantifying cellular proliferation. This assay makes use of a bioluminescent method from Cambrex (ViaLight PLUS, cat. #LT07-121). In the presence of ATP, luciferase converts luciferin to oxyluciferin and light. The amount of light produced (emission at 565 nm) is measured and correlates with a relative amount of proliferation. Human cervical cancer (HeLa) or colon carcinoma (HCT116) cells were incubated with vehicle or increasing concentrations of compound for 48, 72 or 96 hours. Cell proliferation was quantified by adding the cell lysis reagent (provided in the Vialight assay kit) directly to culture wells, followed by addition of the ATP-monitoring reagent (containing luciferase/luciferin). The amount of light produced is then measured (emission at 565 nm). The quantity of light produced, as measured by […], is directly proportional to the number of living cells in culture.
# [2] = biological target: histone deacetylase, subtype 1 (HDAC1) (Homo sapiens (Human), UniProt Q13547); experiment: HDAC1-Flag in vitro deacetylation assay; format: biochemical; details: IP = inflection point; read-out: HDAC1 IP (inflection point)
# Chain of histone deacetylase, subtype 1 (HDAC1) (Q13547 whole entry): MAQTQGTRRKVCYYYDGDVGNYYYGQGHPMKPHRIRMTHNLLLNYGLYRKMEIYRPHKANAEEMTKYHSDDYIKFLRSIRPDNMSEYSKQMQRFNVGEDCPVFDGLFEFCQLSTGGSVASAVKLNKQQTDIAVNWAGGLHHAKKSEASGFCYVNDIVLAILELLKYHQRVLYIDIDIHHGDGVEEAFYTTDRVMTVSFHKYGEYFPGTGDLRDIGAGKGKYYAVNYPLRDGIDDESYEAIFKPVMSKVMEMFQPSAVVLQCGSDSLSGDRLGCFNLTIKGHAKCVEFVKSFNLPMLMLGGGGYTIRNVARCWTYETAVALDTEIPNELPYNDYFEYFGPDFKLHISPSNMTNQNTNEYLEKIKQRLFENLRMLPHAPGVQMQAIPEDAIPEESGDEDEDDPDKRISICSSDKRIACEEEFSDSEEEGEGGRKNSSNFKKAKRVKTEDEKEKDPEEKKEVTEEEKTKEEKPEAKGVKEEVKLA
# Description: Novel compounds were tested for their ability to inhibit histone deacetylase, subtype 1 (HDAC1) using an in vitro deacetylation assay. The enzyme source for this assay was an epitope-tagged human HDAC1 complex immuno-purified from stably expressing mammalian cells. The substrate consisted of a commercial product containing an acetylated lysine side chain (BIOMOL Research Laboratories, Inc., Plymouth Meeting, Pa.). Upon deacetylation of the substrate by incubation with the purified HDAC1 complex, a fluorophore is produced that is directly proportional to the level of deacetylation.
Structure (SMILES),IC50 [1] [nM],IC50 [2] [nM]
"Nc1ccc(-c2ccccc2)cc1NC(=O)c1ccc(CNC(=O)OCc2cccnc2)cc1 [Example 1, Pyridin-3-ylmethyl[(4-{[(4-aminobiphenyl-3-yl)amino]carbonyl}phenyl)methyl]carbamate]",380,
"CC(C)OC(=O)NCc1ccc(C(=O)Nc2cc(-c3ccccc3)ccc2N)cc1 [Example 11, 1-methylethyl[(4-{[(4-aminobiphenyl-3-yl)amino]carbonyl}phenyl)methyl]carbamate]",130,
"CCCOC(=O)NCc1ccc(C(=O)Nc2cc(-c3ccccc3)ccc2N)cc1 [Example 12, propyl[(4-{[(4-aminobiphenyl-3-yl)amino]carbonyl}phenyl)methyl]carbamate]",360,29
"CC(C)COC(=O)NCc1ccc(C(=O)Nc2cc(-c3ccccc3)ccc2N)cc1 [Example 13, 2-methylpropyl[(4-{[(4-aminobiphenyl-3-yl)amino]carbonyl}phenyl)methyl]carbamate]",390,45
"Nc1ccc(-c2ccccc2)cc1NC(=O)c1ccc(CNC(=O)Oc2ccccc2)cc1 [Example 14, phenyl[(4-{[(4-aminobiphenyl-3-yl)amino]carbonyl}phenyl)methyl]carbamate]",1400,320
"Nc1ccc(-c2ccccc2)cc1NC(=O)c1ccc(CNC(=O)OCc2ccccc2)cc1 [Example 15, phenylmethyl[(4-{[(4-aminobiphenyl-3-yl)amino]carbonyl}phenyl)methyl]carbamate]",820,
"CC(C)COC(=O)NCc1ccc(C(=O)Nc2cc(-c3cccs3)ccc2N)cc1 [Example 20, 2-methylpropyl {[4-({[2-amino-5-(2-thienyl)phenyl]amino}carbonyl)phenyl]methyl}carbamate]",300,31
"Nc1ccc(-c2cccs2)cc1NC(=O)c1ccc(CNC(=O)Oc2ccccc2)cc1 [Example 21, phenyl {[4-({[2-amino-5-(2-thienyl)phenyl]amino}carbonyl)phenyl]methyl}carbamate]",640,77
"Nc1ccc(-c2cccs2)cc1NC(=O)c1ccc(CNC(=O)OCc2ccccc2)cc1 [Example 22, phenylmethyl {[4-({[2-amino-5-(2-thienyl)phenyl]amino}carbonyl)phenyl]methyl}carbamate]",320,53
"CC(C)(C)C(=O)NCc1ccc(C(=O)Nc2cc(-c3ccccc3)ccc2N)cc1 [Example 28, N-(4-aminobiphenyl-3-yl)-4-{[(2,2-dimethylpropanoyl)amino]methyl}benzamide]",260,25
"Nc1ccc(-c2ccccc2)cc1NC(=O)c1ccc(CNC(=O)C2CCC2)cc1 [Example 30, N-(4-aminobiphenyl-3-yl)-4-{[(cyclobutylcarbonyl)amino]methyl}benzamide]",220,23
"Nc1ccc(-c2ccccc2)cc1NC(=O)c1ccc(CNC(=O)C2CCCCC2)cc1 [Example 32, N-(4-aminobiphenyl-3-yl)-4-{[(cyclohexylcarbonyl)amino]methyl}benzamide]",340,42
"Nc1ccc(-c2cccs2)cc1NC(=O)c1ccc(CNC(=O)C2CCCCC2)cc1 [Example 45, N-[2-amino-5-(2-thienyl)phenyl]-4-{[(cyclohexylcarbonyl)amino]methyl}benzamide]",190,
CN1CCC(CNCc2ccc(C(=O)Nc3cc(-c4ccccc4)ccc3O)cc2)C1 (stereo not drawn) [Example 110],,180
"O=C(Nc1cc(-c2ccccc2)ccc1O)c1ccc(CNCCn2cccn2)cc1 [Example 111, N-(4-hydroxy-3-biphenylyl)-4-({[2-(1H-pyrazol-1-yl)ethyl]amino}methyl)benzamide]",,33
"CN(Cc1ccc(C(=O)Nc2cc(-c3ccccc3)ccc2O)cc1)C1CCOC1 (stereo not drawn) [Example 112, N-(4-hydroxy-3-biphenylyl)-4-{[methyl(tetrahydro-3-furanyl)amino]methyl}benzamide]",,43
"CN(Cc1ccc(C(=O)Nc2cc(-c3ccccc3)ccc2O)cc1)Cc1cnccn1 [Example 113, N-(4-hydroxy-3-biphenylyl)-4-{[methyl(2-pyrazinylmethyl)amino]methyl}benzamide]",,31
"CN(Cc1ccc(C(=O)Nc2cc(-c3ccccc3)ccc2O)cc1)Cc1cnn(C)c1 [Example 114, N-(4-hydroxy-3-biphenylyl)-4-({methyl[(1-methyl-1H-pyrazol-4-yl)methyl]amino}methyl)benzamide]",,24
"CN1CCC(CN(C)Cc2ccc(C(=O)Nc3cc(-c4ccccc4)ccc3O)cc2)CC1 [Example 115, N-(4-hydroxy-3-biphenylyl)-4-({methyl[(1-methyl-4-piperidinyl)methyl]amino}methyl)benzamide]",,78
"O=C(Nc1cc(-c2ccccc2)ccc1O)c1ccc(CN2CCCC2c2ccccn2)cc1 (stereo not drawn) [Example 116, N-(4-hydroxy-3-biphenylyl)-4-{[2-(2-pyridinyl)-1-pyrrolidinyl]methyl}benzamide]",,280
"COc1cccc(CNCc2ccc(C(=O)Nc3cc(-c4ccccc4)ccc3O)cc2)c1 [Example 117, N-(4-hydroxy-3-biphenylyl)-4-{[(3-methoxybenzyl)amino]methyl}benzamide]",,4300

# The remaining lines, values ahead:
IC50 [1] [nM],IC50 [2] [nM],Structure (SMILES)
370,5.8,"Nc1ccc(-c2ccsc2)cc1NC(=O)c1ccc(CNC(=O)OCc2cccnc2)cc1 [Example 4, pyridin-3-ylmethyl {[4-({[2-amino-5-(3-thienyl)phenyl]amino}carbonyl)phenyl]methyl}carbamate]"
1000,16,"O=C(NCc1ccc(C(=O)Nc2cc(-c3cccnc3)ccc2O)cc1)OCc1cccnc1 [Example 6, pyridin-3-ylmethyl[(4-{[(2-hydroxy-5-pyridin-3-ylphenyl)amino]carbonyl}phenyl)methyl]carbamate]"
260,17,"COC(=O)NCc1ccc(C(=O)Nc2cc(-c3ccccc3)ccc2N)cc1 [Example 9, methyl[(4-{[(4-aminobiphenyl-3-yl)amino]carbonyl}phenyl)methyl]carbamate]"
230,16,"CCOC(=O)NCc1ccc(C(=O)Nc2cc(-c3ccccc3)ccc2N)cc1 [Example 10, ethyl[(4-{[(4-aminobiphenyl-3-yl)amino]carbonyl}phenyl)methyl]carbamate]"
130,12,"CCOC(=O)NCc1ccc(C(=O)Nc2cc(-c3cccs3)ccc2N)cc1 [Example 16, ethyl {[4-({[2-amino-5-(2-thienyl)phenyl]amino}carbonyl)phenyl]methyl}carbamate]"
96,6,"COC(=O)NCc1ccc(C(=O)Nc2cc(-c3cccs3)ccc2N)cc1 [Example 17, methyl {[4-({[2-amino-5-(2-thienyl)phenyl]amino}carbonyl)phenyl]methyl}carbamate]"
120,19,"CC(C)OC(=O)NCc1ccc(C(=O)Nc2cc(-c3cccs3)ccc2N)cc1 [Example 18, 1-methylethyl {[4-({[2-amino-5-(2-thienyl)phenyl]amino}carbonyl)phenyl]methyl}carbamate]"
110,19,"CCCOC(=O)NCc1ccc(C(=O)Nc2cc(-c3cccs3)ccc2N)cc1 [Example 19, propyl {[4-({[2-amino-5-(2-thienyl)phenyl]amino}carbonyl)phenyl]methyl}carbamate]"
320,18,"CC(=O)NCc1ccc(C(=O)Nc2cc(-c3ccccc3)ccc2N)cc1 [Example 23, 4-[(acetylamino)methyl]-N-(4-aminobiphenyl-3-yl)benzamide]"
120,17,"CCC(=O)NCc1ccc(C(=O)Nc2cc(-c3ccccc3)ccc2N)cc1 [Example 24, N-(4-aminobiphenyl-3-yl)-4-[(propanoylamino)methyl]benzamide]"
220,17,"CCCC(=O)NCc1ccc(C(=O)Nc2cc(-c3ccccc3)ccc2N)cc1 [Example 25, N-(4-aminobiphenyl-3-yl)-4-[(butanoylamino)methyl]benzamide]"
170,15,"Nc1ccc(-c2ccccc2)cc1NC(=O)c1ccc(CNC(=O)C2CC2)cc1 [Example 26, N-(4-aminobiphenyl-3-yl)-4-{[(cyclopropylcarbonyl)amino]methyl}benzamide]"
150,10,"CC(C)C(=O)NCc1ccc(C(=O)Nc2cc(-c3ccccc3)ccc2N)cc1 [Example 27, N-(4-aminobiphenyl-3-yl)-4-{[(2-methylpropanoyl)amino]methyl}benzamide]"
210,14,"CC(C)CC(=O)NCc1ccc(C(=O)Nc2cc(-c3ccccc3)ccc2N)cc1 [Example 29, N-(4-aminobiphenyl-3-yl)-4-{[(3-methylbutanoyl)amino]methyl}benzamide]"
420,14,"Nc1ccc(-c2ccccc2)cc1NC(=O)c1ccc(CNC(=O)CCc2ccccc2)cc1 [Example 31, N-(4-aminobiphenyl-3-yl)-4-{[(3-phenylpropanoyl)amino]methyl}benzamide]"
